According to article PMC5218480 (PLoS ONE, 2017):

Tested on: MV-4-11 cells
Experiment: Gene expression microarray analysis (Affymetrix PrimeView) and GSEA
Format: cell-based, human
Design: RFU PODN (11730768_x_at) / Fold change /veh PODN (11730768_x_at) / RFU LINC00158 (11744669_a_at) / Fold change /veh LINC00158 (11744669_a_at) / RFU DUSP10 (11751237_a_at) / Fold change /veh DUSP10 (11751237_a_at) / RFU ID3 (11757404_x_at) / Fold change /veh ID3 (11757404_x_at) / RFU PLEKHG5 (11737974_s_at) / Fold change /veh PLEKHG5 (11737974_s_at) / RFU LRRC4B (11730491_at) / Fold change /veh LRRC4B (11730491_at) / RFU GIMAP4 (11747438_a_at) / Fold change /veh GIMAP4 (11747438_a_at) / RFU KRT8 (11758183_x_at) / Fold change /veh KRT8 (11758183_x_at) / RFU CNN1 (11734310_a_at) / Fold change /veh CNN1 (11734310_a_at) / RFU VPS37D (11726825_at) / Fold change /veh VPS37D (11726825_at) / RFU C10orf10 (11716522_x_at) / Fold change /veh C10orf10 (11716522_x_at) / RFU KIR2DL2 /// KIR2DL4 /// KIR2DL5A /// KIR2DL5B /// KIR2DS1 /// KIR2DS2 /// KIR2DS3 /// KIR2DS4 /// KIR3DL3 /// KIR3DL3 /// KIR3DS1 (11738374_at) / Fold change /veh KIR2DL2 /// KIR2DL4 /// KIR2DL5A /// KIR2DL5B /// KIR2DS1 /// KIR2DS2 /// KIR2DS3 /// KIR2DS4 /// KIR3DL3 /// KIR3DL3 /// KIR3DS1 (11738374_at) / RFU C1QL1 (11718748_at) / Fold change /veh C1QL1 (11718748_at) / RFU TMPRSS4 (11747572_a_at) / Fold change /veh TMPRSS4 (11747572_a_at) / RFU HAMP (11756126_x_at) / Fold change /veh HAMP (11756126_x_at) / RFU RNFT2 (11725882_a_at) / Fold change /veh RNFT2 (11725882_a_at) / RFU NR4A2 (11747474_a_at) / Fold change /veh NR4A2 (11747474_a_at) / RFU ABCC12 (11746883_a_at) / Fold change /veh ABCC12 (11746883_a_at) / RFU TMEM136 (11760407_x_at) / Fold change /veh TMEM136 (11760407_x_at) / RFU CLDN22 /// WWC2 (11732394_at) / Fold change /veh CLDN22 /// WWC2 (11732394_at) / RFU HLA-DPB1 (11760878_x_at) / Fold change /veh HLA-DPB1 (11760878_x_at) / RFU SPINT1 (11716480_a_at) / Fold change /veh SPINT1 (11716480_a_at) / RFU GAP43 (11754022_s_at) / Fold change /veh GAP43 (11754022_s_at) / RFU A4GNT (11735810_at) / Fold change /veh A4GNT (11735810_at) / RFU PRB3 (11715151_x_at) / Fold change /veh PRB3 (11715151_x_at) / RFU TUBB4B (11761932_at) / Fold change /veh TUBB4B (11761932_at) / RFU CAPN14 (11732068_a_at) / Fold change /veh CAPN14 (11732068_a_at) / RFU TMCC2 (11721928_a_at) / Fold change /veh TMCC2 (11721928_a_at) / RFU IRGQ (11745062_a_at) / Fold change /veh IRGQ (11745062_a_at) / RFU FAM174B (11720279_a_at) / Fold change /veh FAM174B (11720279_a_at) / RFU TMPRSS4 (11748680_a_at) / Fold change /veh TMPRSS4 (11748680_a_at) / RFU FAM212B (11763350_a_at) / Fold change /veh FAM212B (11763350_a_at) / RFU PLEKHG5 (11743358_a_at) / Fold change /veh PLEKHG5 (11743358_a_at) / RFU ZSCAN30 (11745921_a_at) / Fold change /veh ZSCAN30 (11745921_a_at) / RFU CMKLR1 (11741424_a_at) / Fold change /veh CMKLR1 (11741424_a_at) / RFU LOC101060620 /// MAPK8IP1 (11723275_at) / Fold change /veh LOC101060620 /// MAPK8IP1 (11723275_at) / RFU SPTSSB (11747773_x_at) / Fold change /veh SPTSSB (11747773_x_at) / RFU PRSS12 (11739890_at) / Fold change /veh PRSS12 (11739890_at) / RFU BIN1 (11741810_x_at) / Fold change /veh BIN1 (11741810_x_at) / RFU WNT11 (11732464_a_at) / Fold change /veh WNT11 (11732464_a_at) / RFU C10orf10 (11716521_a_at) / Fold change /veh C10orf10 (11716521_a_at) / RFU C5orf56 (11738089_at) / Fold change /veh C5orf56 (11738089_at) / RFU CYB561 (11721691_x_at) / Fold change /veh CYB561 (11721691_x_at) / RFU ANKRD19P (11752326_a_at) / Fold change /veh ANKRD19P (11752326_a_at) / RFU OR2T12 /// OR2T33 /// OR2T8 (11738714_s_at) / Fold change /veh OR2T12 /// OR2T33 /// OR2T8 (11738714_s_at) / RFU VCAN (11748164_a_at) / Fold change /veh VCAN (11748164_a_at) / RFU JSRP1 (11732532_at) / Fold change /veh JSRP1 (11732532_at) / RFU KRTAP10-11 (11738290_x_at) / Fold change /veh KRTAP10-11 (11738290_x_at) / RFU MYO3A (11730013_a_at) / Fold change /veh MYO3A (11730013_a_at) / RFU EBF3 (11725865_a_at) / Fold change /veh EBF3 (11725865_a_at) / RFU CAMK2N1 (11719241_x_at) / Fold change /veh CAMK2N1 (11719241_x_at) / RFU C5orf56 (11738088_a_at) / Fold change /veh C5orf56 (11738088_a_at) / RFU OLFML3 (11715873_a_at) / Fold change /veh OLFML3 (11715873_a_at) / RFU LOC100653217 /// NTM (11731650_a_at) / Fold change /veh LOC100653217 /// NTM (11731650_a_at) / RFU MAPK11 (11762145_a_at) / Fold change /veh MAPK11 (11762145_a_at) / RFU FIZ1 (11724087_x_at) / Fold change /veh FIZ1 (11724087_x_at) / RFU OASL (11726364_x_at) / Fold change /veh OASL (11726364_x_at) / RFU SOX15 (11748057_x_at) / Fold change /veh SOX15 (11748057_x_at) / RFU CD79A (11719716_a_at) / Fold change /veh CD79A (11719716_a_at) / RFU HIST1H1D (11736915_at) / Fold change /veh HIST1H1D (11736915_at) / RFU CASKIN2 (11723855_a_at) / Fold change /veh CASKIN2 (11723855_a_at) / RFU LOC730098 (11760151_x_at) / Fold change /veh LOC730098 (11760151_x_at) / RFU OR4N2 (11742367_at) / Fold change /veh OR4N2 (11742367_at) / RFU PRRT2 (11749266_a_at) / Fold change /veh PRRT2 (11749266_a_at) / RFU SNX32 (11753110_a_at) / Fold change /veh SNX32 (11753110_a_at) / RFU CDHR5 (11726645_a_at) / Fold change /veh CDHR5 (11726645_a_at) / RFU RCAN1 (11760418_a_at) / Fold change /veh RCAN1 (11760418_a_at) / RFU FAM167A (11723789_a_at) / Fold change /veh FAM167A (11723789_a_at) / RFU FAM26E (11764081_at) / Fold change /veh FAM26E (11764081_at) / RFU ISYNA1 (11749810_s_at) / Fold change /veh ISYNA1 (11749810_s_at) / RFU ACY1 (11761880_at) / Fold change /veh ACY1 (11761880_at) / RFU 11764098_at / Fold change /veh 11764098_at / RFU SAMD14 (11745864_x_at) / Fold change /veh SAMD14 (11745864_x_at) / RFU NPB (11741838_a_at) / Fold change /veh NPB (11741838_a_at) / RFU TMPRSS6 (11731388_a_at) / Fold change /veh TMPRSS6 (11731388_a_at) / RFU KRTAP10-2 (11738614_at) / Fold change /veh KRTAP10-2 (11738614_at) / RFU ARHGAP8 /// PRR5-ARHGAP8 (11727945_x_at) / Fold change /veh ARHGAP8 /// PRR5-ARHGAP8 (11727945_x_at) / RFU KRTAP5-7 /// NADSYN1 (11734609_at) / Fold change /veh KRTAP5-7 /// NADSYN1 (11734609_at) / RFU RASL12 (11751679_a_at) / Fold change /veh RASL12 (11751679_a_at) / RFU CDKN2B (11736163_a_at) / Fold change /veh CDKN2B (11736163_a_at) / RFU PRF1 (11729649_at) / Fold change /veh PRF1 (11729649_at) / RFU, ZNF638 /// ZNF638-IT1 / Fold change vs veh, ZNF638 /// ZNF638-IT1 / RFU, PANK3 / Fold change vs veh, PANK3 / RFU, SH3YL1 / Fold change vs veh, SH3YL1 / RFU, ZEB2 / Fold change vs veh, ZEB2 / RFU, NRIP1 / Fold change vs veh, NRIP1 / RFU, PTTG1IP / Fold change vs veh, PTTG1IP / RFU, CAPN2 / Fold change vs veh, CAPN2 / RFU, MED14 / Fold change vs veh, MED14 / RFU, SNORA58 / Fold change vs veh, SNORA58 / RFU, C1orf63 / Fold change vs veh, C1orf63 / RFU, LRRFIP1 / Fold change vs veh, LRRFIP1 / RFU, NDUFAF7 / Fold change vs veh, NDUFAF7 / RFU, SLC12A2 / Fold change vs veh, SLC12A2 / RFU, IBTK / Fold change vs veh, IBTK / RFU, ESF1 / Fold change vs veh, ESF1 / Fold change vs veh, TMEM50B / RFU, TAOK1 / Fold change vs veh, TAOK1 / RFU, ACBD3 / Fold change vs veh, ACBD3 / RFU, TMA16 / Fold change vs veh, TMA16 / RFU, RWDD3 / Fold change vs veh, RWDD3 / RFU, BCAT1 / Fold change vs veh, BCAT1 / RFU, EDEM3 / Fold change vs veh, EDEM3 / RFU, TMEM33 / Fold change vs veh, TMEM33 / RFU, WDR75 / Fold change vs veh, WDR75 / RFU, AHCTF1 / Fold change vs veh, AHCTF1 / RFU, TFRC / Fold change vs veh, TFRC / RFU, ZDHHC17 / Fold change vs veh, ZDHHC17 / RFU, NOM1 / Fold change vs veh, NOM1 / RFU, ARL8B / Fold change vs veh, ARL8B / RFU, ZBTB11 / Fold change vs veh, ZBTB11 / RFU, TAMM41 / Fold change vs veh, TAMM41 / RFU, KIAA1704 /// LOC100996395 / Fold change vs veh, KIAA1704 /// LOC100996395 / RFU, ING1 / Fold change vs veh, ING1 / RFU, TRMT61B / Fold change vs veh, TRMT61B / RFU, FUBP3 / Fold change vs veh, FUBP3 / RFU, TP53 / Fold change vs veh, TP53 / RFU, TNKS2 / Fold change vs veh, TNKS2 / RFU, ZFP14 / Fold change vs veh, ZFP14 / RFU, ACTR2 / Fold change vs veh, ACTR2 / RFU, PPP3R1 / Fold change vs veh, PPP3R1 / RFU, PIK3R1 / Fold change vs veh, PIK3R1 / RFU, HNRNPA1 / Fold change vs veh, HNRNPA1 / RFU, RNF170 / Fold change vs veh, RNF170 / RFU, ZNF28 / Fold change vs veh, ZNF28 / RFU, RNGTT / Fold change vs veh, RNGTT / RFU, OGT / Fold change vs veh, OGT / RFU, BRD1 / Fold change vs veh, BRD1 / RFU, MARS / Fold change vs veh, MARS / RFU, ZNF655 / Fold change vs veh, ZNF655 / RFU, FAHD1 / Fold change vs veh, FAHD1 / RFU, BDP1 / Fold change vs veh, BDP1 / RFU, LRRCC1 / Fold change vs veh, LRRCC1 / RFU, ARID1A / Fold change vs veh, ARID1A / RFU, ZNF146 / Fold change vs veh, ZNF146 / RFU, ZNF330 / Fold change vs veh, ZNF330 / RFU, GPN3 / Fold change vs veh, GPN3 / RFU, C9orf123 / Fold change vs veh, C9orf123 / RFU, N4BP2L2 / Fold change vs veh, N4BP2L2 / RFU, ARFIP1 / Fold change vs veh, ARFIP1 / RFU, FAM179B / Fold change vs veh, FAM179B / RFU, BCL10 / Fold change vs veh, BCL10 / RFU, UHRF1BP1L / Fold change vs veh, UHRF1BP1L / RFU, BET1 / Fold change vs veh, BET1 / RFU, CNOT2 / Fold change vs veh, CNOT2 / RFU, ZNF268 / Fold change vs veh, ZNF268 / Fold change vs veh, ZNF507 / RFU, DGCR2 / Fold change vs veh, DGCR2 / RFU, WDSUB1 / Fold change vs veh, WDSUB1 / Fold change vs veh, HSP90B1 /// MIR3652 / RFU, ADSS / Fold change vs veh, ADSS / RFU, GK / Fold change vs veh, GK / RFU, ZNF148 / Fold change vs veh, ZNF148 / RFU, TAF9 / Fold change vs veh, TAF9 / RFU, SLC1A5 / Fold change vs veh, SLC1A5 / RFU, SLMO2 / Fold change vs veh, SLMO2 / RFU, ABCC4 / Fold change vs veh, ABCC4 / RFU, LOC101060439 /// RAP1B / Fold change vs veh, LOC101060439 /// RAP1B / RFU, RFX7 / Fold change vs veh, RFX7 / RFU, GTPBP10 / Fold change vs veh, GTPBP10 / RFU, CNEP1R1 / Fold change vs veh, CNEP1R1 / RFU, BIVM-ERCC5 /// ERCC5 / Fold change vs veh, BIVM-ERCC5 /// ERCC5 / RFU, ILF3 / Fold change vs veh, ILF3 / RFU 11762660_at / Fold change /veh 11762660_at / RFU VCAN (11757783_s_at) / Fold change /veh VCAN (11757783_s_at) / RFU DDX43 (11728927_at) / Fold change /veh DDX43 (11728927_at) / RFU KRT8 (11758188_x_at) / Fold change /veh KRT8 (11758188_x_at) / RFU NKD1 (11759106_at) / Fold change /veh NKD1 (11759106_at) / RFU SRD5A1 (11742802_a_at) / Fold change /veh SRD5A1 (11742802_a_at) / RFU TPSAB1 /// TPSB2 (11721975_s_at) / Fold change /veh TPSAB1 /// TPSB2 (11721975_s_at) / RFU GSTM3 (11746129_a_at) / Fold change /veh GSTM3 (11746129_a_at) / RFU IL23R (11737362_x_at) / Fold change /veh IL23R (11737362_x_at) / RFU TMEM51 (11727254_a_at) / Fold change /veh TMEM51 (11727254_a_at) / RFU PIWIL2 (11732686_x_at) / Fold change /veh PIWIL2 (11732686_x_at) / RFU ORM1 (11744905_x_at) / Fold change /veh ORM1 (11744905_x_at) / RFU CCDC152 (11743942_at) / Fold change /veh CCDC152 (11743942_at) / RFU ECM1 (11717891_a_at) / Fold change /veh ECM1 (11717891_a_at) / RFU IL23R (11748794_a_at) / Fold change /veh IL23R (11748794_a_at) / RFU TNFAIP8L3 (11732012_x_at) / Fold change /veh TNFAIP8L3 (11732012_x_at) / RFU MBOAT4 (11741988_at) / Fold change /veh MBOAT4 (11741988_at) / RFU 11764193_at / Fold change /veh 11764193_at / RFU TMEM53 (11763286_at) / Fold change /veh TMEM53 (11763286_at) / RFU MAGEB2 (11727129_at) / Fold change /veh MAGEB2 (11727129_at) / RFU TMEM200A (11744735_a_at) / Fold change /veh TMEM200A (11744735_a_at) / RFU CCDC152 (11751479_a_at) / Fold change /veh CCDC152 (11751479_a_at) / RFU FAM211A (11726209_a_at) / Fold change /veh FAM211A (11726209_a_at) / RFU RGS16 (11746705_a_at) / Fold change /veh RGS16 (11746705_a_at) / RFU VCAN (11755009_s_at) / Fold change /veh VCAN (11755009_s_at) / RFU RHOB (11743442_s_at) / Fold change /veh RHOB (11743442_s_at) / RFU RGS16 (11720943_a_at) / Fold change /veh RGS16 (11720943_a_at) / RFU RGS16 (11720944_at) / Fold change /veh RGS16 (11720944_at) / RFU, VPS4B / Fold change vs veh, VPS4B / RFU, CREB1 / Fold change vs veh, CREB1 / RFU, DNAJC13 / Fold change vs veh, DNAJC13 / RFU, GNAQ / Fold change vs veh, GNAQ / RFU, CDK5R1 / Fold change vs veh, CDK5R1 / RFU, ZRANB3 / Fold change vs veh, ZRANB3 / RFU, CUL4A / Fold change vs veh, CUL4A / RFU, CCNY / Fold change vs veh, CCNY / RFU, UFL1 / Fold change vs veh, UFL1 / RFU, COG3 / Fold change vs veh, COG3 / RFU, DIAPH2 / Fold change vs veh, DIAPH2 / RFU, SKA2 / Fold change vs veh, SKA2 / RFU, AFF3 / Fold change vs veh, AFF3 / RFU, LMF1 / Fold change vs veh, LMF1 / RFU, IPO11 / Fold change vs veh, IPO11 / RFU, DFFB / Fold change vs veh, DFFB / RFU, FOXP1 / Fold change vs veh, FOXP1 / RFU, CARD8 / Fold change vs veh, CARD8 / RFU, STRN3 / Fold change vs veh, STRN3 / RFU, ADK / Fold change vs veh, ADK / RFU, RASSF2 / Fold change vs veh, RASSF2 / RFU, WIPF1 / Fold change vs veh, WIPF1 / RFU, LARP1B / Fold change vs veh, LARP1B / RFU, RASA1 / Fold change vs veh, RASA1 / RFU, RB1 / Fold change vs veh, RB1 / RFU, PPFIA1 / Fold change vs veh, PPFIA1 / RFU, MAT2A / Fold change vs veh, MAT2A / RFU, CCT5 / Fold change vs veh, CCT5 / RFU, WDR92 / Fold change vs veh, WDR92 / RFU, CUX1 / Fold change vs veh, CUX1 / RFU, TTC7A / Fold change vs veh, TTC7A / RFU, TMEM135 / Fold change vs veh, TMEM135 / RFU, DEPTOR / Fold change vs veh, DEPTOR / RFU, CPM / Fold change vs veh, CPM / RFU, DNAJB6 / Fold change vs veh, DNAJB6 / RFU, CACNA2D3 / Fold change vs veh, CACNA2D3 / RFU, DTX4 / Fold change vs veh, DTX4 / RFU, TFCP2 / Fold change vs veh, TFCP2 / RFU, GMCL1 /// GMCL1P1 / Fold change vs veh, GMCL1 /// GMCL1P1 / RFU, AEBP2 / Fold change vs veh, AEBP2 / RFU, SNHG1 /// SNORD22 /// SNORD25 /// SNORD26 /// SNORD27 /// SNORD28 /// SNORD29 /// SNORD31 / Fold change vs veh, SNHG1 /// SNORD22 /// SNORD25 /// SNORD26 /// SNORD27 /// SNORD28 /// SNORD29 /// SNORD31 / Fold change (Aza/veh), C12orf56 (ProbeSet 11735607_a_at) / Fold change (ACY-1035/veh), C12orf56 (ProbeSet 11735607_a_at) / Fold change (Aza/veh), FGFR1OP (ProbeSet 11751329_s_at) / Fold change (ACY-1035/veh), FGFR1OP (ProbeSet 11751329_s_at) / Fold change (Aza/veh), VPS36 (ProbeSet 11739960_a_at) / Fold change (ACY-1035/veh), VPS36 (ProbeSet 11739960_a_at) / RFU SYPL1 (11715823_x_at) / Fold change /veh SYPL1 (11715823_x_at) / RFU IGFBP7 (11715501_s_at) / Fold change /veh IGFBP7 (11715501_s_at) / RFU REEP3 (11722064_at) / Fold change /veh REEP3 (11722064_at) / RFU IGLL1 (11728026_x_at) / Fold change /veh IGLL1 (11728026_x_at): dose or concentration left out as unconfirmed
Conditions: MV-4-11 cells, 48 hours

`Nc1ncn([C@@H]2O[C@H](CO)[C@@H](O)[C@H]2O)c(=O)n1` [azacitidine] was tested. Which “RFU IGLL1 (11728026_x_at)” value did it give?
The value was 12.85 RFU.
